In patent US7058616B1, “Method and system for predicting resistance of a disease to a therapeutic agent using a neural network” (Virco Bvba, priority 2000, dated 2006):

Tested on: HIV-1
Test: MT-4 cell viral cytopathic effect protection assay, phenotypic susceptibility of patient recombinant virus
Assay type: cell-based
Procedure: Phenotypic susceptibility was determined using a MT-4 cell viral cytopathic effect protection assay. See, e.g., Kashiwase et al., Chemotherapy 45(1):48–55 (1999), expressly incorporated herein by reference; Larder et al., Antimicrob. Agents Chemother. 43(8):1961–1967 (1999).

Nc1nc(NC2CC2)c2ncn([C@H]3C=C[C@@H](CO)C3)c2n1 [1592 U89]
actual phenotype resistance level (Table 3 testing sample 1): S/S (A fold resistance of less than or equal to 4 is considered to be “sensitive,”)
actual phenotype resistance level (Table 3 testing sample 2): S (A fold resistance of less than or equal to 4 is considered to be “sensitive,”)
actual phenotype resistance level (Table 3 testing sample 3): S/S (A fold resistance of less than or equal to 4 is considered to be “sensitive,”)
actual phenotype resistance level (Table 3 testing sample 4): S/S (A fold resistance of less than or equal to 4 is considered to be “sensitive,”)
actual phenotype resistance level (Table 3 testing sample 5): S/S (A fold resistance of less than or equal to 4 is considered to be “sensitive,”)
actual phenotype resistance level (Table 3 testing sample 6): I (greater than 4 and less than 10 is considered to be “intermediate,”)
actual phenotype resistance level (Table 3 testing sample 7): S/S (A fold resistance of less than or equal to 4 is considered to be “sensitive,”)
actual phenotype resistance level (Table 3 testing sample 8): I (greater than 4 and less than 10 is considered to be “intermediate,”)
actual phenotype resistance level (Table 3 testing sample 9): S/S (A fold resistance of less than or equal to 4 is considered to be “sensitive,”)
actual phenotype resistance level (Table 3 testing sample 10): S/S (A fold resistance of less than or equal to 4 is considered to be “sensitive,”)

Nc1ccn([C@H]2CC[C@@H](CO)O2)c(=O)n1 [DDC]
actual phenotype resistance level (Table 3 testing sample 1): S/S (A fold resistance of less than or equal to 4 is considered to be “sensitive,”)
actual phenotype resistance level (Table 3 testing sample 2): S/S (A fold resistance of less than or equal to 4 is considered to be “sensitive,”)
actual phenotype resistance level (Table 3 testing sample 3): S/S (A fold resistance of less than or equal to 4 is considered to be “sensitive,”)
actual phenotype resistance level (Table 3 testing sample 4): S/S (A fold resistance of less than or equal to 4 is considered to be “sensitive,”)
actual phenotype resistance level (Table 3 testing sample 5): S/S (A fold resistance of less than or equal to 4 is considered to be “sensitive,”)
actual phenotype resistance level (Table 3 testing sample 6): I (greater than 4 and less than 10 is considered to be “intermediate,”)
actual phenotype resistance level (Table 3 testing sample 7): S/S (A fold resistance of less than or equal to 4 is considered to be “sensitive,”)
actual phenotype resistance level (Table 3 testing sample 8): S (A fold resistance of less than or equal to 4 is considered to be “sensitive,”)
actual phenotype resistance level (Table 3 testing sample 9): S/S (A fold resistance of less than or equal to 4 is considered to be “sensitive,”)
actual phenotype resistance level (Table 3 testing sample 10): S/S (A fold resistance of less than or equal to 4 is considered to be “sensitive,”)

CC(C)(C)NC(=O)[C@@H]1CN(Cc2cccnc2)CCN1C[C@@H](O)C[C@@H](Cc1ccccc1)C(=O)N[C@H]1c2ccccc2C[C@H]1O [Indinavir]
actual phenotype resistance level (PI test sample 4): R/R (if the value is greater than 10, it is considered to be ‘resistant’)
actual phenotype resistance level (PI test sample 5): R (if the value is greater than 10, it is considered to be ‘resistant’)
actual phenotype resistance level (PI test sample 6): S/S (A fold resistance of less than or equal to 4 is considered to be ‘sensitive’)
actual phenotype resistance level (PI test sample 7): S/S (A fold resistance of less than or equal to 4 is considered to be ‘sensitive’)
actual phenotype resistance level (PI test sample 8): S/S (A fold resistance of less than or equal to 4 is considered to be ‘sensitive’)
actual phenotype resistance level (PI test sample 9): S/S (A fold resistance of less than or equal to 4 is considered to be ‘sensitive’)
actual phenotype resistance level (PI test sample 10): S/S (A fold resistance of less than or equal to 4 is considered to be ‘sensitive’)
actual phenotype resistance level (PI test sample 11, listed as IDV): S (A fold resistance of less than or equal to 4 is considered to be ‘sensitive’)
actual phenotype resistance level (PI test sample 12): S/S (A fold resistance of less than or equal to 4 is considered to be ‘sensitive’)
actual phenotype resistance level (PI test sample 13): R/R (if the value is greater than 10, it is considered to be ‘resistant’)
actual phenotype resistance level (PI test sample 14): R/R (if the value is greater than 10, it is considered to be ‘resistant’)
actual phenotype resistance level (PI test sample 16): R/R (if the value is greater than 10, it is considered to be ‘resistant’)
actual phenotype resistance level (PI test sample 17): R/R (if the value is greater than 10, it is considered to be ‘resistant’)
actual phenotype resistance level (PI test sample 22): S (A fold resistance of less than or equal to 4 is considered to be ‘sensitive’)
actual phenotype resistance level (PI test sample 23): R/R (if the value is greater than 10, it is considered to be ‘resistant’)
actual phenotype resistance level (PI test sample 24): R/R (if the value is greater than 10, it is considered to be ‘resistant’)
actual phenotype resistance level (PI test sample 26): R/R (if the value is greater than 10, it is considered to be ‘resistant’)
actual phenotype resistance level (PI test sample 27): R/R (if the value is greater than 10, it is considered to be ‘resistant’)
actual phenotype resistance level (PI test sample 28): R/R (if the value is greater than 10, it is considered to be ‘resistant’)
actual phenotype resistance level (PI test sample 32): R/R (if the value is greater than 10, it is considered to be ‘resistant’)
actual phenotype resistance level (PI test sample 35): R/R (if the value is greater than 10, it is considered to be ‘resistant’)
actual phenotype resistance level (PI test sample 36): R/R (if the value is greater than 10, it is considered to be ‘resistant’)
actual phenotype resistance level (PI test sample 37): I/I (greater than 4 and less than 10 is considered to be ‘intermediate’)
actual phenotype resistance level (PI test sample 38): R/R (if the value is greater than 10, it is considered to be ‘resistant’)
actual phenotype resistance level (PI test sample 39): R/R (if the value is greater than 10, it is considered to be ‘resistant’)
actual phenotype resistance level (PI test sample 40): R/R (if the value is greater than 10, it is considered to be ‘resistant’)
actual phenotype resistance level (PI test sample 43): I/I (greater than 4 and less than 10 is considered to be ‘intermediate’)
actual phenotype resistance level (PI test sample 45): R/R (if the value is greater than 10, it is considered to be ‘resistant’)
actual phenotype resistance level (PI test sample 46): R/R (if the value is greater than 10, it is considered to be ‘resistant’)
actual phenotype resistance level (PI test sample 47, listed as IDV): R/R (if the value is greater than 10, it is considered to be ‘resistant’)
actual phenotype resistance level (PI test sample 48): R/R (if the value is greater than 10, it is considered to be ‘resistant’)
actual phenotype resistance level (PI test sample 49): R/R (if the value is greater than 10, it is considered to be ‘resistant’)
actual phenotype resistance level (PI test sample 51): R/R (if the value is greater than 10, it is considered to be ‘resistant’)
actual phenotype resistance level (PI test sample 53): R/R (if the value is greater than 10, it is considered to be ‘resistant’)
actual phenotype resistance level (Table 3 testing sample 1): S/S (A fold resistance of less than or equal to 4 is considered to be “sensitive,”)
actual phenotype resistance level (Table 3 testing sample 2): S/S (A fold resistance of less than or equal to 4 is considered to be “sensitive,”)
actual phenotype resistance level (Table 3 testing sample 5): R/R (if the value is greater than 10, it is considered to be “resistant.”)
actual phenotype resistance level (Table 3 testing sample 7): S/S (A fold resistance of less than or equal to 4 is considered to be “sensitive,”)
actual phenotype resistance level (Table 3 testing sample 9): S/S (A fold resistance of less than or equal to 4 is considered to be “sensitive,”)
actual phenotype resistance level (Table 3 testing sample 10): S (A fold resistance of less than or equal to 4 is considered to be “sensitive,”)
actual phenotype (Table 13/14 sample 2: 10I,46I,48V,77I,82A,90M, 10E,58E,63T): S (A fold resistance of less than or equal to 4 is considered to be ‘sensitive’)
actual phenotype (Table 13/14 sample 8: 10I,54V,71V,73S,84V,90M, 33M,63P): I (greater than 4 and less than 10 is considered to be ‘intermediate’)
actual phenotype (Table 13/14 sample 13: 10I,36I,71T,90M, 63P,73T): I (greater than 4 and less than 10 is considered to be ‘intermediate’)
actual phenotype (Table 13/14 sample 14: 10I,46I,71T,77I,90M, 57K,63P,93L): S (A fold resistance of less than or equal to 4 is considered to be ‘sensitive’)
actual phenotype (Table 13/14 sample 17: 46I,77I,90M, 10F,20L,63P): I (greater than 4 and less than 10 is considered to be ‘intermediate’)
actual phenotype (Table 13/14 sample 18: 36I,71T,90M, 63P,93L): S (A fold resistance of less than or equal to 4 is considered to be ‘sensitive’)
actual phenotype (Table 13/14 sample 20: 77I,88S, 13V, 63P, 93L): S (A fold resistance of less than or equal to 4 is considered to be ‘sensitive’)
actual phenotype (Table 13/14 sample 21: 10I,77I,84V,90M, 63Q): I (greater than 4 and less than 10 is considered to be ‘intermediate’)
actual phenotype (Table 13/14 sample 22: 10I,20R,36I,71V,73S,84V,90M, 13V,63P): R (if the value is greater than 10, it is considered to be ‘resistant’)
